The text below walks through data of US5545667A, “Methods for treating neoplasms with betaines” (The Clorox Company, priority 1994, dated 1996).

In one data set the test system is PAM 212 cells. As to the kind of experiment: Cell growth inhibition assay (surfactants, 3-4 days, Coulter counter), PAM 212. In kind it is cell-based, mouse. As for the experimental part: (§1) Established cell lines are the system of choice for the prescreening of unknown compounds for antineoplastic activity. The tumor cell line screen works on the following principle. Cancer cells, if provided with enough nutrients, will grow unchecked in vitro, allowing researchers to grow many types of cancer cells outside the body. To perform an assay, standard amounts of the various cancer cells are placed in individual wells of a microtiter plate, and incubated with the potential antineoplastic compound of interest, for a sufficient period of time to allow for at least a 6-fold control growth, generally 1 to 5 days depending on cell origin. At the end of the incubation period, the cell lines are stained and assayed by a variety of means including, for example, proteins stains or a colorimeter for normal growth, growth inhibition or cytotoxicity. These assays measure a compound's ability to inhibit cell growth and a positive response of the compounds in these assays would be indicative of the therapeutic potential of these compounds. See, for example, the protocols and data presented in Laskin et al., (1979) Cancer Res 39:383-390 for 5-fluorouracil in mouse and human cells in culture.
(§2) A total of ten cell lines were used to evaluate the growth inhibitory potency of the various surfactants. In these studies, human, rat, mouse and bovine cells were used. A spectrum of different tumor cell types were used including those derived from keratinocytes (PAM 212), leukemias (HL-60, U-937 and K-562), an epitheloid carcinoma (HeLa) and melanoma (B-16). The B16 melanoma was used since this is a common cell type used to evaluate antimetastatic activity of test compounds. The effect of the surfactants on three fibroblast cell lines (C3H 10T1/2, NIH 3T3 and R6) were also evaluated for comparison to the tumor cell lines. The activity of the surfactants was also evaluated using pulmonary aortic endothelial cells for effectiveness as antiangiogenic agents.
(§3) PAM 212 cells are a mouse keratinocyte-derived tumor cell line. U-937 cells are a human histiocytic tumor cell line. HeLa cells are an epitheloid tumor cell line. Three murine fibroblast cells lines tested included the mouse fibroblast cell line, C3H 10T1/2, the rat fibroblast cell line R6, and the NIH 3T3 mouse fibroblast cell line. The human leukemia cell line HL-60 and the mouse melanoma B-16 cell were also tested. K-562 cells were from the American Type Culture Collection. All cells were grown in Dulbecco's modified Eagle's medium in a 37° C. incubator in an atmosphere of 5% CO2.
(§4) For growth inhibition assays, cells were seeded at low density (2.5×10^4 cells in 0.5 ml of culture medium) into 24-well tissue culture plates (Falcon Labware, Lincoln Park, N.J.). After 24 hours at 37° C., increasing concentrations (1 to 100 uM) of the surfactants were added to the cells in the culture plate. Control cultures were incubated in the absence of any surfactant. The cells were then incubated for 3-4 days to allow for growth. Cells from individual wells in the culture plate were then removed and duplicate samples taken for counting using a Coulter counter. To remove adherent cells the plates were treated with 0.25% trypsin/0.2% EDTA (GIBCO, Grand Island, N.Y.).

Another data set relates to U-937 cells. As to the kind of experiment: Cell growth inhibition assay, U-937. The format is cell-based. The settings on record: Homo sapiens. As for the experimental part: as §1, §2, §3, §4
For the next data set, the system named is HeLa cells. The experiment in a line: Cell growth inhibition assay, HeLa. In kind it is cell-based. The settings on record: read-out: IC50 (uM conc. inhibiting growth of the cells by 50%). Here is the method: as §1, §2, §3, §4
A further data set has as its system C3H 10T1/2 cells. The experiment in a line: Cell growth inhibition assay, C3H 10T1/2. In kind it is cell-based, mouse. Here is the method:
as §1, §2, §3, §4

The subject of another data set is HL-60 cells. As to the kind of experiment: Cell growth inhibition assay, HL-60. In kind it is cell-based, human. As for the experimental part:
as §1, §2, §3, §4

Another data set concerns NIH 3T3 cells. The experiment in a line: Cell growth inhibition assay, NIH 3T3. In kind it is cell-based, mouse. As for the experimental part:
as §1, §2, §3, §4

For another data set, the system named is K-562 cells. The experiment in a line: Cell growth inhibition assay, K-562. The settings on record: Homo sapiens. The format is cell-based. As for the experimental part: as §1, §2, §3, §4
Another data set has as its system B-16 cells. The experiment in a line: Cell growth inhibition assay, B-16 melanoma. The format is cell-based, mouse. As for the experimental part: as §1, §2, §3, §4
The subject of another data set is R6 cells. The experiment in a line: Cell growth inhibition assay, R6. The format is cell-based, rat. Particulars: Fibroblast, read-out: IC50 (uM conc. inhibiting growth of the cells by 50%). Here is the method: as §1, §2, §3, §4
The test system of another data set is CPA-5 cells. The experiment in a line: Cell growth inhibition assay, CPA-5 endothelial cells. The settings on record: Bos taurus, read-out: IC50 (uM conc. inhibiting growth of the cells by 50%). The format is cell-based, bovine.
Text: as §2, §3, §4
The compounds were tested as inhibitors of growth in the bovine aortic endothelial cell line CPA-5 as taught in Example 2 in order to evaluate the possibility that they may be anti-angiogenesis agents. A hallmark of angiogenesis is the outgrowth of endothelial cells which are required in the formation of new blood vessels. This process is a critical factor in the vascularization of tumors. Inhibition of neovascularization limits the growth of tumors and would be an effective means of treating cancer. FIG. 3 illustrates that three of the compounds, 8-3S, 12-5B and 12-1B, had no activity against the CPA-5 cell line in the concentration range tested (IC50 =>100 uM), while only relatively high concentrations of 12-3S (IC50 =70 uM) were effective in inhibiting the growth of CPA-5 cells. As indicated above, with several exceptions, these compounds were also not very effective in inhibiting the growth of each of the other cell types.

Data set [1] in a line: Critical micelle concentration (cmc). The format is physicochemical. The source says: "Critical micelle concentration" or "cmc" refers to the point at which micelle formation begins.
The next data set relates to ten cell lines. The experiment in a line: Cell growth inhibition assays, panel of cell lines. In kind it is cell-based, human, rat, mouse and bovine.
Text: as §2, §3, §4

The subject of another data set is battery of cell lines. The settings on record: 1988 report; cited from earlier work.
Another data set concerns liver. Particulars: rats fed ethionine; cited from earlier work.
[2] abbreviates: PAM212, PAM 212 mouse keratinocyte-derived tumor cells, 3-4 days, read-out: IC50 (uM conc. inhibiting growth of the cells by 50%).
Setting [3] is: U-937, U-937 human histiocytic tumor cells, 3-4 days, read-out: IC50 (uM conc. inhibiting growth of the cells by 50%).
The mark [4] stands for this setting: Homo sapiens, HeLa, HeLa cells, 3-4 days.
The mark [5] stands for this setting: C3H 10T1/2 mouse fibroblasts, 3-4 days, read-out: IC50 (uM conc. inhibiting growth of the cells by 50%).
The mark [6] stands for this setting: HL-60 human leukemia cells, 3-4 days, read-out: IC50 (uM conc. inhibiting growth of the cells by 50%).
[7] abbreviates: NIH3T3, NIH 3T3 mouse fibroblasts, 3-4 days, read-out: IC50 (uM conc. inhibiting growth of the cells by 50%).
[8] abbreviates: K562, K-562 leukemia cells, 3-4 days, read-out: IC50 (uM conc. inhibiting growth of the cells by 50%).
The mark [9] stands for this setting: B16, B-16 mouse melanoma cells, 3-4 days, read-out: IC50 (uM conc. inhibiting growth of the cells by 50%).
[10] abbreviates: CPA-5 bovine aortic endothelial cells, 3-4 days.
[11] abbreviates: U-937, read-out: IC50 (uM conc. inhibiting growth of the cells by 50%).
Setting [12] is: Mus musculus, C3H 10T1/2, read-out: IC50 (uM conc. inhibiting growth of the cells by 50%).
Where [13] appears, read: Homo sapiens, HL-60, read-out: IC50 (uM conc. inhibiting growth of the cells by 50%).
Where [14] appears, read: Mus musculus, NIH3T3, read-out: IC50 (uM conc. inhibiting growth of the cells by 50%).
[15] abbreviates: K562, read-out: IC50 (uM conc. inhibiting growth of the cells by 50%).
The mark [16] stands for this setting: Mus musculus, B16, read-out: IC50 (uM conc. inhibiting growth of the cells by 50%).

Structures can show the parent of a compound that is named as a salt. Where two headings read alike, the source gives them in different places. Bounds are passed on as bounds.

One may read the IC50 as the concentration at which inhibition is half-maximal. On to `CCCCCCCC[N+](C)(C)CCCS(=O)(=O)[O-]` [8-3S, N-octyl-N, N-dimethyl-3-ammonio-1-propanesulfonate], for which the IC50 with PAM 212 cells (setting [2]), in the data set with U-937 cells (setting [3]), in the data set with HeLa cells (setting [4]), with C3H 10T1/2 cells (setting [5]), in the data set with HL-60 cells (setting [6]) and in the data set with NIH 3T3 cells (setting [7]) was above 100 µM throughout. Besides, the IC50 in the data set on K-562 cells (setting [8]) is above 100 µM; in the data set with B-16 cells (setting [9]) it was above 100 µM; in the data set with R6 cells (R6 rat fibroblasts, 3-4 days), 78 µM; with CPA-5 cells (setting [10]), above 100 µM; in the data set with ten cell lines (all / all other cell lines tested, read-out: IC50 over the cell lines tested (range or bound)), above 100 µM. Also, the cmc in [1] is reported as 200,000 uM.
Consider `CCCCCCCCCCCC[N+](C)(C)CC(=O)[O-]` [12-1B, N-(carboxymethyl)-N,N-dimethyl-1-dodecanaminium hydroxide inner salt], for which the IC50 in the data set on U-937 cells (setting [11]) is above 100 µM; with HeLa cells (Homo sapiens, HeLa), 39 µM; with C3H 10T1/2 cells (setting [12]), above 100 µM; in the data set on HL-60 cells (setting [13]) it was 37 µM; in the data set with NIH 3T3 cells (setting [14]), above 100 µM; in the data set on K-562 cells (setting [15]), 19 µM. Further, the IC50 in the data set on B-16 cells (setting [16]) is 90 µM; in the data set with R6 cells (Rattus norvegicus) it was above 100 µM; in the data set on CPA-5 cells, above 100 µM. Further, in [1], the cmc was 2,400 uM. In the data set on battery of cell lines, the “inhibition and toxicity at the concentrations tested” value was “inhibitory and toxic”.
As for `CCCCCCCCCCCC[N+](C)(C)CCCS(=O)(=O)[O-]` [12-3S, N-dodecyl-N,N-dimethyl-3-ammonio-1-propanesulfonate], the concentration for half-maximal inhibition (IC50) in the data set with PAM 212 cells (setting [2]) was 3 µM; with U-937 cells (setting [3]), above 100 µM; in the data set with HeLa cells (HeLa cells, 3-4 days) it was 58 µM; in the data set on HeLa cells (setting [4]), 68 µM; in the data set on C3H 10T1/2 cells (setting [5]), 6.5 µM; with HL-60 cells (setting [6]), 9.3 µM. In addition, the concentration for half-maximal inhibition (IC50) was above 100 µM with NIH 3T3 cells (setting [7]); above 100 µM in the data set with K-562 cells (setting [8]); above 100 µM in the data set with B-16 cells (setting [9]); 45 µM in the data set on R6 cells (R6 rat fibroblasts, 3-4 days); 70 µM in the data set on CPA-5 cells (setting [10]). Besides, the cmc in [1] was 2,200 uM. In the data set on battery of cell lines, the “inhibition and toxicity at the concentrations tested” value was “noninhibitory and nontoxic”.
As to `CCCCCCCCCCCC[N+](C)(C)CCCCCC(=O)[O-]` [12-5B, N-(5-carboxypentyl)-N,N-dimethyl-1-dodecanaminium hydroxide inner salt], the IC50 is 60 µM in the data set on PAM 212 cells (setting [2]); above 100 µM in the data set on U-937 cells (setting [3]); 75 µM in the data set with HeLa cells (setting [4]); above 100 µM in the data set with C3H 10T1/2 cells (setting [5]); 11 µM in the data set with HL-60 cells (setting [6]); above 100 µM with NIH 3T3 cells (setting [7]). Moreover, the IC50 was above 100 µM with K-562 cells (setting [8]); above 100 µM with B-16 cells (setting [9]); 78 µM in the data set with R6 cells (R6 rat fibroblasts, 3-4 days); above 100 µM in the data set on CPA-5 cells (setting [10]). Besides, the cmc in data set [1] is 5,100 uM.
In the case of `CCCCCCCCCCCCCCCC[N+](C)(C)CC(=O)[O-]` [16-1B, N-(carboxymethyl)-N,N-dimethyl-1-hexadecanaminium hydroxide inner salt], the IC50 in the data set with PAM 212 cells (Mus musculus, PAM212, read-out: IC50 (uM conc. inhibiting growth of the cells by 50%)) stood at 50 µM; in the data set on U-937 cells (setting [11]), 23 µM; in the data set with HeLa cells (Homo sapiens, HeLa), 16 µM; in the data set with C3H 10T1/2 cells (setting [12]), 54 µM; in the data set with HL-60 cells (setting [13]) it was 8 µM; with NIH 3T3 cells (setting [14]), 60 µM. Moreover, the half-inhibitory concentration (IC50) in the data set on K-562 cells (setting [15]) turned out to be 32 µM; in the data set with B-16 cells (setting [16]) it was 52 µM; in the data set on R6 cells (Rattus norvegicus), 45 µM; in the data set with CPA-5 cells, 30 µM. The compound also gave a cmc in data set [1] of 14 µM. Also, the “activity against all of the cell lines tested” value in the data set on ten cell lines (growth inhibition) is recorded as “effective against all of the cell lines”.
For the compound `CCCCCCCCCCCCCCCC[N+](C)(C)CCCS(=O)(=O)[O-]` [16-3S, N-hexadecyl-N,N-dimethyl-3-ammonio-1-propanesulfonate], the IC50 in the data set on PAM 212 cells (setting [2]) came out at 7.5 µM; in the data set with U-937 cells (setting [3]) it was 6 µM; in the data set on HeLa cells (setting [4]) it was 2.2 µM; in the data set with C3H 10T1/2 cells (setting [5]), 3.3 µM; in the data set with HL-60 cells (setting [6]), 1.6 µM; in the data set with NIH 3T3 cells (setting [7]), 40 µM. The IC50 with K-562 cells (setting [8]) was found to be 15 µM; in the data set with B-16 cells (setting [9]) it was 54 µM; in the data set with R6 cells (R6 rat fibroblasts, 3-4 days), 14 µM; in the data set with CPA-5 cells (setting [10]), 17 µM. This compound also returned a cmc in data set [1] of 28 µM.
As for `C[N+](C)(C)CC(=O)O` [betaine], the “prevention of chronic morphological changes in the liver, including cancer formation” value with liver is given as “relatively effective in preventing chronic morphological changes in the liver, including cancer formation”.
